Test [1] concerns pancreatic adenocarcinoma cell line, ATCC number CRL-2119. The experiment in a line: Number of pancreatic adenocarcinoma cells in culture, counted by microscope. In kind it is cell-based, human. An excerpt: The pancreatic adenocarcinoma cell line, ATCC number CRL-2119, was derived in 1985 from a nude mouse xenograft of a primary tumor removed from the head of the pancreas. It is a moderate to well-differentiated pancreatic adenocarcinoma of ductal origin. These pancreatic adenocarcinoma cells are stimulated to proliferate in culture by insulin, insulin-like growth factor I (IGF-I), epidermal growth factor (EGF), and transforming growth factor alpha (TGF alpha). These adenocarcinoma cells contain significant concentrations of tumor-associated antigens CEA, CA 125, and CA 19-9. In culture, these adenocarcinoma cells form monolayers of morphologically heterogeneous polar epithelial cells. These cells are tumorgenic in that they form tumors in athymic nude mice at the site of inoculation that are histologically similar to the tumor of origin.
Propagation of these cells was in Dulbecco's modified Eagle's plus Ham's F12-A 1:1 mixture of Dulbecco's modified Eagle's medium and Ham's F12 medium containing 1.2 g/L of sodium bicarbonate (Sigma Chemical Co., St. Louis, Mo.) supplemented with 15 mM HEPES and fetal bovine serum, 10%, at a temperature of 37° C. as recommended by the ATCC.
These pancreatic adenocarcinoma cells were subcultured (passaged) by removing spent (i.e., old) medium by aspiration, and then adding calcium and magnesium free Hank's Balanced Salt Solution with 0.25% trypsin and 0.03% ethylenediaminetetracetic acid (EDTA). The culture was allowed to sit at room temperature for 2 to 5 minutes. Fresh medium was added to the adenocarcinoma cells which were dispensed into new flasks, with subculture every 6 to 8 days. The growth medium was changed every three days.
After these adenocarcinoma cells were subcultured for 24 hours, they were then seeded to coverslips and transferred to 24 microwell plates (NUCOLON, Roskilde Denmark), with 1 ml Dulbeco Modified Eagle's (DME)/[…] nutrient culture media (Sigma Chemical Co.) with 10% fetal bovine serum (Atlanta Biologicals, Norcross, Ga.). After 24 hours, wells were washed twice with Dulbecco's Modified Eagle's/Ham's F12 with 0.1% bovine serum albumin (Sigma-Aldrich, St. Louis, Mo.) and allowed to incubate in this serum free medium for an additional 24 hour period of serum deprivation. Serum-free media was utilized to remove all variables (EGF, etc.) present in serum in order that interpretation of any data obtained would be straightforward. After 24 hours of serum deprivation, media volume was reduced to 250 μL per well with or without the respective peptide hormones at their 1 μM concentrations (1% of this volume). The adenocarcinoma cells were then incubated for various periods of time (24, 48, 72, and 96 hours).At the end of the above time periods, hematoxylin was added for 5 minutes to make the cells more visible for counting, and then they were washed for 5 minutes. The coverslips were then placed face down on microscope slides with the addition of 6 μl of histologic grade phosphate buffered saline (PBS)/I-glycine that had been filtered immediately before use with a 0.22 μm polyethersulfone, nonpyrogenic, sterile, low protein binding membrane (Corning 43117, Corning Inc., Corning, N.Y.). The number of adenocarcinoma cells were then counted with a cell counter evaluating ten fields of the microscope slide at 40× along the X-axis with an Olympus BH-2 microscope (Atlanta, Ga.). This evaluation was repeated on six separate occasions with the number of adenocarcinoma cells reflecting 60 observations for each group, i.e., 60 observations for controls and 60 observations for each of the four groups with respective peptide hormones. The only variable in this investigation was whether one of the four peptide hormones was added to the pancreatic adenocarcinoma cells. Otherwise all the adenocarcinoma cells were treated the same, i.e., with same culture medium, time of incubation, and processing of cells for the various investigations. […]

Test [2] relates to pancreatic adenocarcinoma cells. The experiment in a line: DNA synthesis by bromodeoxyuridine (BrdU) incorporation into adenocarcinoma cells. Particulars: 1 μM, 24 hours. In kind it is cell-based, human. An excerpt:
To investigate whether these peptide hormones were inhibiting DNA synthesis and cell proliferation bromodeoxyuridine (BrdU) incorporation into the adenocarcinoma cells was utilized. BrdU was from BD Bioscience, San Jose, Calif. DNA synthesis and doubling of the genome take place during the synthetic or S phase. BrdU is a thymidine analog incorporated into nuclear DNA during the S phase of the cell cycle. Immunohistochemical methods use BrdU also as a marker of cell proliferation in cancer biology studies. After 24 hours in culture with 1 μM of LANP, vessel dilator, kaliuretic peptide, or ANP, respectively, or with no peptide hormone (i.e., control), BrdU in a final concentration of 10 μM in the cell culture medium was added for 45 minutes—which is time in which the cells are in the logarithmic phase of cell proliferation. For immunohistochemistry, a BrdU in situ detection kit from Becton Dickinson Immunocytochemistry Systems, San Jose, Calif., was utilized.
After the 45 minutes with BrdU, the adenocarcinoma cells were washed three times in phosphate buffered saline (PBS), five minutes each. This was followed by placing the cells in a −80° C. freezer for five minutes and then 100% methanol was added at 5° C. in order for the cells to become permeable enabling the anti-BrdU antibody to reach the nucleus of the cell. The cells were then washed again in PBS before 100 μl of biotinylated anti-BrdU antibody was added. The coverslips were then incubated in a humidified chamber for one hour. After this incubation, the slides were rinsed in PBS, two minutes each. Then streptavidin-horseradish peroxidase (HRP) was added to each coverslip. The cells were then incubated for 30 minutes. Streptavidin-HRP binds to biotinylated anti-BrdU and HRP is used with addition of diaminobenzidine (DAB) substrate system to visualize BrdU incorporation into the adénocarcinoma cells. After the 30 minute incubation with streptavidin-HRP, the coverslips were rinsed in PBS, two minutes each time, before adding the DAB substrate solution, which contains DAB chromagen and DAB buffer, for five minutes. The coverslips were then rinsed in water, two minutes each time before counterstaining the slides with hematoxylin for 60 seconds followed by a thorough rinsing in water for five minutes. The incorporation of the BrdU stain into the nucleus was then counted using a Nikon Inverted Diaphot-TMD Microscope (Tokyo, Japan). The number of stained nuclei was compared in the four peptide hormone groups to the positive control group. The negative control for these studies was provided by Becton Dickinson Immunocytochemistry Systems.
BrdU has an advantage over ^3H-thymidine incorporation in that it takes less time and provides high resolution.
Cyclic GMP and prostaglandin E2 are the two known mediators of all of the previously described biologic effects of these four peptide hormones. All four of these peptide hormones-induced vasodilation of vasculature is mediated by increased cyclic GMP concentrations via enhancing guanylate cyclase activity. […] ANPs effects in the kidney are thought to be mediated by cyclic GMP. Each of these peptide hormones increase cyclic GMP while simultaneously dilating vasculature. 8 bromo-cyclic GMP reproduces these vasodilatory effects. For the present investigation of the mechanism of these peptide hormones' ability to inhibit DNA synthesis in cancer cells, 8-bromoguanosine 3′,5′-cyclic monophosphate (i.e., 8-bromo cyclic GMP, Sigma-Aldrich Co., St. Louis, Mo.) was utilized. 8-bromo cyclic GMP is a cell-permeable analog of cyclic GMP. 8-bromo cyclic GMP effects on DNA synthesis were investigated in dose-response curves with cyclic GMP concentrations ranging from 100 pM to 5 mM.
Prostaglandin E2, i.e., (5Z, 11α, 13E, 15S)-11, 15-dihydro-9-oxo-prosta-5, 13-dien-I-oic acid was purchased from Sigma-Aldrich, St. Louis, Mo. […]

This is an account of results in patent publication US6943147B2, “Cancer treatment using proANP peptides” (University of South Florida, priority 2003, dated 2005).

Regarding “vessel dilator: a.a. 31-67 of the 126 a.a. ANP prohormone; peptide hormone from Peninsula Laboratories”, the “decrease in the number of adenocarcinoma cells” value in test [1] (1 μM, 24 hours, vs untreated cells) came out at 65%; in test [1] (1 μM, 72 hours, vs untreated cells), 70%; in test [1] (1 μM, 96 hours, vs untreated cells) it was 70%; in test [1] (time not stated) it was 70%. The “number of adenocarcinoma cells” value in test [1] (1 μM, 24 hours, untreated 183.4+/−8) was 63.8+/−4 cells per high powered field. For the same substance, the “number of cancer cells compared to controls” value in test [1] (1 μM, 48 hours) was determined as 68%. For the same substance, in test [2], the “inhibition of DNA synthesis” value is given as 91%.
